{"source": "patent US20040087498A1", "about": "“Modified factor VII” (Novo Nordisk Health Care AG, priority 1991, published 2004)", "key": {"[1]": {"test_system": "tissue factor (TF) and activated Factor VII (FVIIa) mediation of vascular lesion formation", "assay": "Vascular lesion formation after carotid endarterectomy in baboons", "format": "in vivo", "conditions": "baboon", "experimental": "Measurements were performed for vascular lesion formation on day 30. The results in 5 treated animals were compared with the findings in 5 concurrent vehicle buffer-infused controls.\nUnder halothane anesthesia and sterile operating conditions, animals labeled with autologous ^111In-platelets received intravenous infusions of DEGR-FVIIa using the tether system for continuous intravenous administration (initial bolus injection of 1 mg/kg followed by continuous intravenous infusion of 50 μg/kg/hr. The animals received surgical carotid endarterectomy, bilateral brachial artery or bilateral femoral artery Fogarty balloon catheter angioplasties.\nThe DEGR-FVIIa was administered for 7 or 30 days by continuous infusions via venous catheter using the tether system. Thirty days after surgery the animals were anesthetized with halothane and underwent in situ pressure-perfusion fixation with 4% paraformaldehyde containing 0.1% glutaraldeyde for 30 min. […]\nCarotid endarterectomy was performed through a midline neck incision using the technique of Hanson et al., Hypertension 18:I170-I-176 (1991) and Krupski et al., Circulation 84:1749-1757 (1991), incorporated herein by reference. […] The endarterectomy was then performed beginning 1 cm from the divided end of the everted vessel segment and continued for a measured distance of 1 cm. […]"}, "[2]": {"test_system": "fibrin deposition associated with endotoxemia", "assay": "Fibrin deposition in kidneys and lungs in rabbits", "format": "in vivo, rabbit"}, "femoral artery lumen": {"test_system": "femoral artery lumen", "assay": "Angiographic luminal diameter after balloon angioplasty in atherosclerotic rabbits", "format": "in vivo, rabbit", "experimental": "The test drug delivery for the animals consisted of an initial bolus injection immediately prior to balloon angioplasty, followed by a continuous systemic infusion by osmotic pump via the internal jugular vein. The duration of the drug infusion was 3 days. The control animals received heparin, 150 U/kg IV bolus, prior to balloon angioplasty followed by saline infusion. The DEGR-FVIIa treated animals received a 1 mg/kg bolus injection followed by 50 μg/kg/hr infusion.\nFor the placement of the osmotic pumps for continuous systemic infusion, anesthesia was induced in the animals as described above, and maintained throughout the procedure with additional IM injections of ketamine and Xylazine. Through a midline neck incision, the right internal jugular vein was isolated by blunt dissection and the distal end ligated. A silastic tube (PE-160) was introduced into the right internal jugular vein. A subcutanecus tunnel was created to pass the silastic tube. This tube was connected with the osmotic pump. The osmotic pump was implanted subcutaneously in the back of the rabbit. The right common carotid artery was isolated by blunt dissection and the distal end ligated. Via an arteriotomy, a 5F introducer was placed and advanced to the junction of the aortic arch. Blood was drawn for determination of hemostatic parameters, drugs and cholesterol levels. Twenty milligrams of xylocain was injected intraarterially. A control aortoilibfemoral angiogram was performed via a 5F Berman catheter positioned above the aortic bifurcation using 3-4 ml renographin injected over 3 seconds by hand.\nFollowing balloon dilatation, the angioplasty catheter was withdrawn and the Berman catheter reintroduced to a position 3 cm above the aortic bifurcation. To minimize spasm 20 mg of lidocaine was given intraarterially. A post procedure angiogram was performed as described above. A 1 cm grid was positioned at the level of the femoral artery to calculate the actual diameter. The catheter was then removed. The right carotid artery was ligated with 3-0 silk and the wound sutured by layers. […]"}}}
{"substance": "DEGR-Factor VIIa: Recombinant human Factor VIIa with its active site derivatized by Dansyl-L-Glu-Gly-Arg-chloromethyl Ketone (DEGRck)", "values": [{"measurement": "intimal area", "setting": "[1]; treated for 30 days, examined at 30 days", "result": "A similar result"}, {"measurement": "intimal area", "setting": "[1]; treated for seven days, studied at 30 days, versus control", "result": "significantly decreased"}, {"measurement": "fibrin deposition in kidneys and lungs", "setting": "[2]", "result": "dose-response effect for blocking fibrin deposition in kidneys and lungs"}, {"measurement": "Mean MLD", "setting": "femoral artery lumen; 21 Day Measurement", "result": 1.393}, {"measurement": "Mean MLD", "setting": "femoral artery lumen; Post-PTCA Measurement", "result": 1.323}, {"measurement": "Mean MLD", "setting": "femoral artery lumen; Pre-PTCA Measurement", "result": 1.283}]}
